Experimental data from patent publication US20150018305A1, “SIRTUIN INDUCER, TISSUE REPAIRING AGENT, HEPATOCYTE GROWTH FACTOR INDUCER, TISSUE HOMEOSTASIS MAINTENANCE AGENT, AND TLR4 AGONIST, HAVING HYALURONIC ACID FRAGMENT AS ACTIVE INGREDIENT” (HYALURONAN RESEARCH INSTITUTE, INC., priority 2012, published 2015).

Tests used:
liver function = assay: Concanavalin A liver damage model, blood GOT and GPT (Test Example 15); assay type: in vivo; details: concanavalin A 20 mg/kg caudal vein, fragment oral, after 24 hours, 20-month old female Balb/c mice
Protocol: The effect of action of the hyaluronic acid fragment on the liver of aged […] was investigated. Specifically, 20-month old (aged) female Balb/c mice were administered through the caudal vein with concanavalin A (20 mg/kg of body weight) one time, as a liver damage model. Subsequent to administration of concanavalin A, hyaluronic acid fragment (4mer or L3mer) were administered orally, and the effect thereof was investigated. Impairment of liver function was evaluated after 24 hours, by drawing blood and measuring the GOT and GPT values in the blood.

[1] = test system: human neural stem cells (neurospheres); assay: Action on human neural stem cells, Nestin/Tubulin double staining (Test Example 7); assay type: cell-based; details: 10 ng/ml, 12 days
Protocol: Human neural stem cells (neurospheres) (trade name Gibco Human Neural Stem Cells (H9-Derived) made by Gibco) were cultured in Neurobasal Media (trade name, made by Gibco) culture medium at 37° C. under 5% CO2, and the cells were recovered by trypsin treatment. The cells were then inoculated into a 96-well plate (100 μL per well) and cultured overnight. Following completion of culture, the culture broth from each well was transferred to Neurobasal Media (trade name, made by Gibco) culture medium to which no hyaluronic acid fragments were added, or to the same medium to which hyaluronic acid fragment (L3mer) had been added to a final concentration of 10 ng/ml, and cultured for 12 days
After 12 days had passed, the cells in each well were double-stained with anti human Nestin antibody and anti human Tubulin antibody. Nestin is a protein that is specifically expressed in neural stem cells, and is a neural stem cell marker. The stained cells were observed under a microscope (made by Nikon), taking photographs of cell morphology and stained images of cells.

[2] = test system: Hepatocyte growth factor expression (mRNA); assay: Induction of hepatocyte growth factor in human epidermal keratinocytes, DNA microarray (Test Example 13); assay type: cell-based; details: 10 ng/ml, 24 hours; Cy5, DNA microarray
Protocol: Human epidermal keratinocytes (normal human keratinocytes from a person) were cultured respectively in a culture medium containing 10 ng/ml of four-unit hyaluronic acid fragment (4mer), and a culture medium containing no hyaluronic acid fragments (untreated), for 24 hours. For the culture medium, a serum-free medium for use with normal human keratinocytes, made by DS Pharma Biomedical Co. Ltd. was employed. After culture, the cells were recovered and analyzed with a DNA microarray (DNA chip).

[3] = test system: human epidermal keratinocytes; assay: Change in size of human epidermal keratinocytes, image analysis (Test Example 3); assay type: cell-based; details: surface area on the image of a single cell; 0.01 ng/ml, 24 hours
Protocol: A test of sirtuin induction in human epidermal keratinocytes was conducted in the same manner as in Test Example 1.
The change in cell size was analyzed using image analysis software (“Image J”). The 5 results in Table 2 are graphed in FIG. 5. The pixel count in the results indicates surface area on the image of a single cell, with higher values considered to indicate larger cells.

[4] = test system: sirtuin enzymatic activity (sirt1 enzymatic activity); assay: Sirtuin enzymatic activity in cell solution of human epidermal keratinocytes, CycLex SIRT1/Sir2 Deacetylase Fluorometric Assay Kit (Test Example 2); assay type: cell-based; details: 10 ng/ml final concentration; cell crude extract
Protocol: Human epidermal keratinocytes were treated in the same manner as in Test Example 1, except that the final concentration of the hyaluronic acid fragment was 10 ng/ml, the size thereof being four sugar units (4mer), six sugar units (6mer), or 10 sugar units (10mer), while measuring the sirtuin enzymatic activity (sirt1 enzymatic activity) in the cell solution thereof. For purposes of comparison, 10 kDa or 900 kDa hyaluronic acid, and resveratrol, a known sirtuin activator, were likewise tested at 10 ng/ml final concentration. A human sirtuin recombinant protein (recombinant human sirt1) produced through genetic recombination techniques was used as a substance for verification of the measurement system. Sirtuin enzymatic activity in the cell crude extract was measured with the CycLex SIRT1/Sir2 Deacetylase Fluorometric Assay Kit (trade name of CycLex), following the protocol of the kit.

[5] = test system: activated (phosphorylated) NF-kappaB; assay: NF-kappaB expression in TNF-α treated human large intestine epithelial cells, fluorescent staining (Test Example 9); assay type: cell-based; details: TNF-α treatment, 10 ng/ml test substance, 24 hours
Protocol: It was investigated whether the expression of NF-kappaB in human large intestine epithelial cells (HT29 cells) when subjected to TNF-α treatment is affected by treatment with the hyaluronic acid fragment. NF-kappaB is a transcription factor involved in inflammation, tissue destruction, and the like.
DMEM culture medium (made by Wako Pure Chemical Industries, Ltd.) to which TNF-α and the hyaluronic acid fragment were added, and DMEM culture medium from which these were omitted, were prepared, and human large intestine epithelial cells were treated for 24 hours in these culture media. Thereafter, the cells were stained with an antibody that recognizes activated (phosphorylated) NF-kappaB.
The vertical axis of the graph indicates fluorescent intensity. It may be appreciated that, in cells to which four- to eight-unit hyaluronic acid fragments were added, the expression level of NF-kappaB is reduced in statistically significant fashion.

[6] = test system: human sirtuin proteins (SIRT1); assay: Sirtuin induction in human epidermal keratinocytes, anti human SIRT1 antibody staining (Test Example 1); assay type: cell-based; details: 24 hours
Protocol: Human epidermal keratinocytes (normal human keratinocytes from a person) were cultured and prepared. Following culture of the human keratinocytes in a prolonged culture growth medium (EpiLife-KG2) at 37° C. under 5% CO2, the cells were recovered by trypsin treatment. The cells were then inoculated into a 96-well plate (100 μL per well) and cultured overnight. Following completion of culture, the culture broth from each well was transferred to a culture medium (keratinocyte SFM made by Gibco) to which no hyaluronic acid fragments were added, or to the same culture medium to which a hyaluronic acid fragment (4mer) was added to a final concentration of 0.01 ng/ml, 0.1 ng/ml, 1.0 ng/ml, or 10 ng/ml, and cultured for 24 hours.
After 24 hours had passed, the cells in each well were stained with the anti human SIRT1 antibody. The anti human SIRT1 antibody is an antibody that recognizes and stains human sirtuin proteins. The stained cells were observed under a microscope (made by Nikon), taking photographs of cell morphology and stained images of cells.

| Fluorescent intensity, Hepatocyte growth factor expression in keratinocytes (mRNA) [2] | Compound | impairment of liver function (GOT values in the blood) (liver function) | expression of Nestin and Tubulin [1] | process formation (morphology) [1] | Average pixel count [3] | sirtuin enzymatic activity (sirt1 enzymatic activity) compared with negative control [4] | expression level of NF-kappaB (fluorescent intensity) [5] | Average staining intensity ([6]; 0.01 ng/ml) | Average staining intensity ([6]; 0.1 ng/ml) | Average staining intensity ([6]; 1.0 ng/ml) | Average staining intensity ([6]; 10 ng/ml) |
| --- | --- | --- | --- | --- | --- | --- | --- | --- | --- | --- | --- |
|  | CC(=O)NC1C(O[C@@H]2OC(C(=O)O)[C@@H](O)C(O)C2O)[C@H](O)C(CO)O[C@H]1O[C@@H]1C(C(=O)O)O[C@@H](OCCCN=[N+]=[N-])C(O)C1O (some centres unmarked) [L3mer] | markedly better with the L3mer than with the 4mer | expression of both Nestin and Tubulin was confirmed | process formation was confirmed |  |  |  |  |  |  |  |
| 200.40 | CC(=O)N[C@H]1[C@H](O[C@H]2[C@H](O)[C@@H](O)[C@H](O[C@H]3[C@H](O)[C@@H](CO)OC(O)[C@@H]3NC(C)=O)O[C@@H]2C(=O)O)O[C@H](CO)[C@@H](O)[C@@H]1O[C@@H]1O[C@H](C(=O)O)[C@@H](O)[C@H](O)[C@H]1O (some centres unmarked) [4mer, GlcA(-GlcNAc-GlcA)1-GlcNAc] |  |  |  | 124515.9333 | approximately triple | inhibited to the greatest extent | 6.33 | 6.35 | 6.52 | 6.54 |
